From US20250188092A1, “RIFAMYCIN ANALOGS” (THE REGENTS OF THE UNIVERSITY OF MICHIGAN, priority 2021, published 2025)
pIC50: −log10 of the molar value. Values after ≈ are worked out from the molar mass of the structure shown. Like-named read-outs stand apart in the source and are kept apart here.

Tests used:
[1] = test system: non-replicating cultures of M. tuberculosis H37Rv transformed with lux ABCDE; experiment: microbe, parasite or virus in culture; format: cell-based, Mycobacterium tuberculosis; details: for MIC90: ≥90% reduction in luminescence, read-out: MIC90 LORA; for MIC90 LORA/MABA: ratio of LORA MIC90 to MABA MIC90
[2] = test system: M. tuberculosis transformed with luxABCDE; experiment: microbe, parasite or virus in culture; format: cell-based, Mycobacterium tuberculosis
β-S450L (RIF^R) MTB RNAP = β-S450L (RIF^R) MTB RNAP (Mycobacterium tuberculosis, UniProt P9WGY9, S456L); details: read-out: RNAP IC50 MTB S450L
[3] = […], ≥99% reduction in luminescence, read-out: MBC99 Day 7 (Lux Assay) MBC
[4] = Mycobacterium tuberculosis, H37RV
[5] = Mycobacterium tuberculosis, 168 h, […], ≥99% reduction in luminescence, read-out: MBC99 Day 7 (Lux Assay) MBC

Row | SMILES | MIC90 LORA Rel to RMP [1] | MIC90 [1] | MIC90 LORA/MABA [1] | MBC [2, 3] | pIC50 (β-S450L (RIF^R) MTB RNAP) | MBC99 Day 7 (Lux Assay) MBC Rel to RMP [2] | MIC90 [1, 4] | MBC [2, 5] | MIC90 LORA Rel to RMP ([1]; LORA MIC90 relative to rifampin (RMP = 1)) | MIC90 ([2]; Mycobacterium tuberculosis, 168 h, day 7 of time-kill study) | MBC ([2]; Mycobacterium tuberculosis, 168 h, day 7 of time-kill study, read-out: MBC99)
1 | CO[C@H]1/C=C/O[C@@]2(C)Oc3c(C)c(O)c4c(=O)c(c5oc6cc(N7CCC(CC(=O)O)CC7)cc(OCc7ccc(CN8CCOCC8)cc7)c6nc-5c4c3C2=O)NC(=O)/C(C)=C\C=C\[C@H](C)[C@H](O)[C@@H](C)[C@@H](O)[C@@H](C)[C@H](OC(C)=O)[C@@H]1C [Compound 17l, 2-{1-[(7S,9E,11S,12R,13S,14R,15R,16R,17S,18S,19E,21Z)-13-(acetyloxy)-2,15,17-trihydroxy-11-methoxy-3,7,12,14,16,18,22-heptamethyl-32-{[4-(morpholin-4-ylmethyl)phenyl]methoxy}-6,23,37-trioxo-8,27,38-trioxa-24,34-diazahexacyclo-[23.11.1.1^4,7.0^5,36.0^26,35.0^28,33]octatriaconta-1,3,5(36)9,19,21,25,28,30,32,34-undecaen-30-yl]piperidin-4-yl)acetic acid] | 31 | 0.843 µM (≈ 0.954 µg/mL) | 4.5 | >0.1 µM | 4.66 | – | – | – | – | – | –
2 | CO[C@H]1/C=C/O[C@@]2(C)Oc3c(C)c(O)c4c(=O)c(c5oc6cc(N7CCN(C(=O)c8cccc(-c9ccccn9)c8)CC7)cc(OCc7ccc(CN8CCOCC8)cc7)c6nc-5c4c3C2=O)NC(=O)/C(C)=C\C=C\[C@H](C)[C@H](O)[C@@H](C)[C@@H](O)[C@@H](C)[C@H](OC(C)=O)[C@@H]1C [Compound 17r, (7S,9E,11S,12R,13S,14R,15R,16R,17S,18S,19E,21Z)-2,15,17-trihydroxy-11-methoxy-3,7,12,14,16,18,22-heptamethyl-32-{[4-(morpholin-4-ylmethyl)phenyl]methoxy}-6,23,37-trioxo-30-(4-{[3-(pyridin-2-yl)phenyl]carbonyl}piperazin-1-yl)-8,27,38-trioxa-24,34-diazahexacyclo[23.11.1.1^4,7.0^5,36.0^26,35.0^28,33]octatriaconta-1,3,5(36)9,19,21,25,28,30,32,34-undecaen-13-yl acetate] | 2.60 | 0.13 µM | 5.7 | 0.205 µM | 4.11 | 0.46 | – | – | – | – | –
3 | CO[C@H]1/C=C/O[C@@]2(C)Oc3c(C)c(O)c4c(=O)c(c5oc6cc(N7CCC(CC(=O)O)CC7)cc(N7CCC(CC(=O)O)CC7)c6nc-5c4c3C2=O)NC(=O)/C(C)=C\C=C\[C@H](C)[C@H](O)[C@@H](C)[C@@H](O)[C@@H](C)[C@H](OC(C)=O)[C@@H]1C [Compound 17v, 2-{1-[(7S,9E,11S,12R,13S,14R,15R,16R,17S,18S,19E,21Z)-13-(acetyloxy)-32-[4-(carboxymethyl)piperidin-1-yl]-2,15,17-trihydroxy-11-methoxy-3,7,12,14,16,18,22-heptamethyl-6,23,37-trioxo-8,27,38-trioxa-24,34-diazahexacyclo-[23.11.1.1^4,7.0^5,36.0^26,35.0^28,33]octatriaconta-1,3,5(36)9,19,21,25,28,30,32,34-undecaen-30-yl]piperidin-4-yl)acetic acid] | – | – | – | >0.1 µM | 4.18 | – | – | – | – | – | –
4 | CO[C@H]1/C=C/O[C@@]2(C)Oc3c(C)c(O)c4c(=O)c(c5oc6cc(N7CCN(CC(=O)O)CC7)cc(C)c6nc-5c4c3C2=O)NC(=O)/C(C)=C\C=C\[C@H](C)[C@H](O)[C@@H](C)[C@@H](O)[C@@H](C)[C@H](OC(C)=O)[C@@H]1C [Compound 29h, 2-{4-[(7S,9E,11S,12R,13S,14R,15R,16R,17S,18S,19E,21Z)-13-(acetyloxy)-2,15,17-trihydroxy-11-methoxy-3,7,12,14,16,18,22,32-octamethyl-6,23,37-trioxo-8,27,38-trioxa-24,34-diazahexacyclo[23.11.1.1^4,7.0^5,36.0^26,35.0^28,33]octatriaconta-1,3,5(36)9,19,21,25,28,30,32,34-undecaen-30-yl]piperazin-1-yl}acetic acid] | 5.0 | – | 7.2 | – | – | – | 0.133 µM (≈ 0.125 µg/mL) | > 0.1 µM | – | – | –
5 | CO[C@H]1/C=C/O[C@@]2(C)Oc3c(C)c(O)c4c(=O)c(c5oc6cc(C)cc(N7CCN(CCn8ccnc8)CC7)c6nc-5c4c3C2=O)NC(=O)/C(C)=C\C=C\[C@H](C)[C@H](O)[C@@H](C)[C@@H](O)[C@@H](C)[C@H](OC(C)=O)[C@@H]1C [Compound 30e, (7S,9E,11S,12R,13S,14R,15R,16R,17S,18S,19E,21Z)-2,15,17-Trihydroxy-32-{4-[3-(1H-imidazol-1-yl)ethyl]piperazin-1-yl}-11-methoxy-3,7,12,14,16,18,22,30-octamethyl-6,23,37-trioxo-8,27,38-trioxa-24,34-diazahexacyclo[23.11.1.1^4,7.0^5,36.0^26,35.0^28,33]octatriaconta-1(36)2,4,9,19,21,25,28,30,32,34-undecaen-13-yl acetate] | 0.87 | – | 2.1 | – | – | 1.06 | 0.18 µM | 0.49 µM | – | – | –
6 | CO[C@H]1/C=C/O[C@@]2(C)Oc3c(C)c(O)c4c(=O)c(c5oc6cc(C)cc(N7CCN(C(=O)c8cccc(-n9ccnc9)c8)CC7)c6nc-5c4c3C2=O)NC(=O)/C(C)=C\C=C\[C@H](C)[C@H](O)[C@@H](C)[C@@H](O)[C@@H](C)[C@H](OC(C)=O)[C@@H]1C [Compound 30f, (7S,9E,11S,12R,13S,14R,15R,16R,17S,18S,19E,21Z)-2,15,17-Trihydroxy-32-{4-[3-(1H-imidazol-1-yl)benzoyl]piperazin-1-yl}-11-methoxy-3,7,12,14,16,18,22,30-octamethyl-6,23,37-trioxo-8,27,38-trioxa-24,34-diazahexacyclo[23.11.1.1^4,7.0^5,36.0^26,35.0^28,33]octatriaconta-1(36)2,4,9,19,21,25,28,30,32,34-undecaen-13-yl acetate] | 0.57 | – | 2.7 | – | – | 0.24 | 0.117 µM | 0.11 µM | – | – | –
7 | CO[C@H]1/C=C/O[C@@]2(C)Oc3c(C)c(O)c4c(c3C2=O)C2=NC3(CCN(CC(C)C)CC3)NC2=C(NC(=O)/C(C)=C\C=C\[C@H](C)[C@H](O)[C@@H](C)[C@@H](O)[C@@H](C)[C@H](OC(C)=O)[C@@H]1C)C4=O [RFB, rifabutin, reference compound] | 0.01 | – | 0.94 | – | – | 0.02 | 0.0023 µM (≈ 0.00195 µg/mL) | 0.01 µM (≈ 0.00847 µg/mL) | – | – | –
8 | CO[C@H]1/C=C/O[C@@]2(C)Oc3c(C)c(O)c4c(=O)c(c5oc6cc(N7CCN(CC(C)C)CC7)cc(O)c6nc-5c4c3C2=O)NC(=O)/C(C)=C\C=C\[C@H](C)[C@H](O)[C@@H](C)[C@@H](O)[C@@H](C)[C@H](OC(C)=O)[C@@H]1C [RLZ, rifalazil, reference compound] | 0.01 | – | 2.0 | – | – | 0.07 | 0.0022 µM (≈ 0.00207 µg/mL) | 0.03 µM (≈ 0.0282 µg/mL) | – | – | –
9 | CO[C@H]1/C=C/O[C@@]2(C)Oc3c(C)c(O)c4c(O)c(c(/C=N/N5CCN(C)CC5)c(O)c4c3C2=O)NC(=O)/C(C)=C\C=C\[C@H](C)[C@H](O)[C@@H](C)[C@@H](O)[C@@H](C)[C@H](OC(C)=O)[C@@H]1C [RMP, rifampin, reference compound] | – | – | 7.6 | – | – | 1 | 0.206 µM (≈ 0.17 µg/mL) | 0.463 µM (≈ 0.381 µg/mL) | 1 | 0.03 µM (≈ 0.0247 µg/mL) | 0.463 µM (≈ 0.381 µg/mL)
